Data reported in ChEMBL document CHEMBL1134822, “Trifluoromethyl-containing 3-alkoxymethyl- and 3-aryloxymethyl-2-pyridinones are potent inhibitors of HIV-1 non-nucleoside reverse transcriptase” (Bioorg Med Chem Lett, 2001).
pIC50: −log10 of the molar value.

Assays:
[1] = system: HIV-1 reverse transcriptase (Human immunodeficiency virus 1); experiment: Compound was evaluated for its ability to inhibit the NNRTI HIV-1 enzyme by 90% using whole cell assay
[2] = system: HIV-1 reverse transcriptase (Human immunodeficiency virus 1); experiment: Compound was evaluated for its ability to inhibit the mutant K103N NNRTI HIV-1 enzyme
[3] = system: Human immunodeficiency virus type 1 reverse transcriptase (Human immunodeficiency virus 1), Q72547 [K103N,P225H]
[4] = system: HIV-1 reverse transcriptase (Human immunodeficiency virus 1); experiment: Compound was evaluated for its ability to inhibit the mutant K103N V1081NNRTI HIV-1 enzyme
[5] = system: Human immunodeficiency virus 1; experiment: Antiviral activity against HIV-1 in MT-2 (human leukemia) cells in vitro.; format: functional
[6] = target: Human immunodeficiency virus type 1 reverse transcriptase (Human immunodeficiency virus 1, UniProt Q72547); experiment: Inhibition of the NNRTI HIV-1 enzyme by 50% using enzyme assay.
[7] = system: HIV-1 reverse transcriptase (Human immunodeficiency virus 1); experiment: Compound was evaluated for its ability to inhibit the mutant K103N L1001 NNRTI HIV-1 enzyme

| SMILES | IC90 [5] [nM] | pIC50 [6] | other results |
| --- | --- | --- | --- |
| O=C1Nc2ccc(Cl)cc2[C@@](C#CC2CC2)(C(F)(F)F)N1 | – | – | IC90 [1]: 2 nM; IC90 [2]: 10 nM; IC90 [3]: 73 nM; IC90 [4]: 38 nM |
| Oc1ncccc1C(C#CC1CC1)(Oc1cccc(Oc2ccccc2)c1)C(F)(F)F (stereo not given) | > 1140 | 4.61 | – |
| O=C1Nc2ccc(Cl)cc2[C@@](/C=C/C2CC2)(C(F)(F)F)N1 | – | – | IC90 [3]: 140 nM; IC90 [4]: 90 nM |
| CCc1cc(C(C#CC2CC2)(OCc2c(F)cccc2F)C(F)(F)F)c(O)nc1C (stereo not given) | 49 | 6.21 | – |
| CCc1cc(C(C#CC2CC2)(OC)C(F)(F)F)c(O)nc1C (stereo not given) | 201 | 6.11 | – |
| Oc1ncccc1C(/C=C/c1ccccc1)(OCc1ccccc1)C(F)(F)F (stereo not given) | > 1300 | 4.36 | – |
| CCOC(C#CC1CC1)(c1cc(CC)c(C)nc1O)C(F)(F)F (stereo not given) | 95 | 6.74 | – |
| CCc1cc(C(C#CC2CC2)(OCc2ccccc2)C(F)(F)F)c(O)nc1C (stereo not given) | – | – | IC90 [1]: 46 nM; IC90 [7]: 668 nM; IC90 [2]: 113 nM; IC90 [3]: 283 nM; IC90 [4]: 1210 nM |
| Oc1ncccc1C(C#Cc1ccccc1)(OCc1ccccc1)C(F)(F)F (stereo not given) | > 1300 | 4.93 | – |
| CCc1cc(C(C#CC2CC2)(OCc2c(Cl)cccc2Cl)C(F)(F)F)c(O)nc1C (stereo not given) | 157 | 4.39 | – |
| CCc1cc(C(C#CC2CC2)(OCc2ccc(Cl)cc2Cl)C(F)(F)F)c(O)nc1C (stereo not given) | 190 | 5.57 | – |
| CCc1cc(NCc2nc3c(Cl)ccc(Cl)c3o2)c(O)nc1C [L-697661] | 50 | – | – |
| CCc1cc(C(C#CC2CC2)(OCc2cc(OC)cc(OC)c2)C(F)(F)F)c(O)nc1C (stereo not given) | 579 | 5.42 | – |
| CCc1cc(C(C#CC2CC2)(OCc2ccccc2)C(F)(F)F)c(=O)[nH]c1C (stereo not given) | – | 5.87 | – |
| CCc1cc(C(C#CC2CC2)(OCC2CC2)C(F)(F)F)c(O)nc1C (stereo not given) | 37 | 6.73 | – |
| CCc1cc(C(C#CC2CC2)(OCc2c(F)cccc2Cl)C(F)(F)F)c(O)nc1C (stereo not given) | 61 | 5.22 | – |

Further molecules by rising pIC50 [6], results first:

| IC90 [5] [nM] | pIC50 [6] | SMILES | other results |
| --- | --- | --- | --- |
| 579 | 4.44 | Oc1nc2ccccc2cc1C(C#CC1CC1)(OCc1ccccc1)C(F)(F)F (stereo not given) | – |
| 1010 | 4.59 | Oc1ncccc1C(C#CC1CC1)(OCc1ccccn1)C(F)(F)F (stereo not given) | – |
| > 1440 | 4.59 | Oc1ncccc1C(C#CC1CC1)(OCc1cccnc1)C(F)(F)F (stereo not given) | – |
| > 1400 | 4.78 | Oc1ncccc1C(/C=C/C1CC1)(OCc1ccccc1)C(F)(F)F (stereo not given) | – |
| 182 | 4.93 | Oc1ncccc1C(C#CC1CC1)(OCc1ccccc1)C(F)(F)F (stereo not given) | – |
| 431 | 5.09 | Oc1ncccc1C(C#CC1CC1)(OCc1ccncc1)C(F)(F)F (stereo not given) | – |
| 160 | 5.71 | CCc1cc(C(C#CC2CC2)(OCc2c(F)cccc2OC)C(F)(F)F)c(O)nc1C (stereo not given) | – |
| 1400 | 5.73 | CCc1cc(C(C#CC2CC2)(OCC#N)C(F)(F)F)c(O)nc1C (stereo not given) | – |
| 42 | 6.89 | CCCCOC(C#CC1CC1)(c1cc(CC)c(C)nc1O)C(F)(F)F (stereo not given) | – |
| 32 | 6.98 | CCCOC(C#CC1CC1)(c1cc(CC)c(C)nc1O)C(F)(F)F (stereo not given) | – |
